Here are results for 20 compounds from patent US7179818B2, “Substituted aminoquinuclidine compounds” (Ortho-McNeil Pharmaceutical, Inc., priority 2002, dated 2007).

Structures can show the parent of a compound that is named as a salt. Where two headings read alike, the source gives them in different places.

The melting point is the temperature, or range, at which the solid turns liquid. In general, Ki refers to a dissociation constant, usually derived from enzyme kinetics or from competition with a known ligand.

Series [1] addresses T1, μ-opioid receptor (Rattus norvegicus, UniProt P33535).
T1 construct: from tissue; host or cells: rat (Wistar) forebrain homogenate, particulate preparation
In words: Rat brain μ-opioid receptor binding assay ([3H]DAMGO). The protocol:
Male, Wistar rats (150–250 g, VAF, Chades River, Kingston, N.Y.) are killed by cervical dislocation and their brains removed and placed immediately in ice cold Tris HCl buffer (50 mM, pH 7.4). The forebrains are separated from the remainder of the brain by a coronal transection, beginning dorsally at the colliculi and passing ventrally through the midbrain-pontine junction. After dissection, the forebrains are homogenized in Tris buffer in a Teflon®-glass homogenizer. The homogenate is diluted to a concentration of 1 g of forebrain tissue per 100 mL Tris buffer and centrifuged at 39,000×G for 10 min. The pellet is resuspended in the same volume of Tris buffer with several brief pulses from a Polytron homogenizer. This particulate preparation is used for the μ-opioid binding assays. […] The tubes and filters are rinsed three times with 4 mL of 10 mM HEPES (pH 7.4) and the radioactivity associated with the filter circles determined using Formula 989 scintillation fluid (New England Nuclear, Boston, Mass.) in a scintillation counter.
The data are used to calculate either the % inhibition compared to control binding (when only a single concentration of test compound is evaluated) or a Ki value (when a range of concentrations is tested).
% Inhibition is calculated as: […]
(§1) Ki value is calculated using the LIGAND (Munson, P. J. and Rodbard, D., Anal. Biochem. 107: 220–239, 1980) data analysis program.

Series [2] deals with T2, δ-opioid receptor (Rattus norvegicus, UniProt P33533).
T2 construct: from tissue; host or cells: rat (Wistar) forebrain homogenate, particulate preparation
In words: Rat brain δ-opioid receptor binding assay ([3H]DPDPE). The conditions noted are these: for δ-Opioid Receptor Binding, Inhibition at 1 μM: single concentration 1 μM. How it is done:
Male, Wistar rats (150–250 g, VAF, Charles River, Kingston, N.Y.) are killed by cervical dislocation, and their brains removed and placed immediately in ice cold Tris HCl buffer (50 mM, pH 7.4). The forebrains are separated from the remainder of the brain by a coronal transection, beginning dorsally at the colliculi and passing ventrally through the midbrain-pontine junction. After dissection, the forebrains are homogenized in Tris buffer in a Teflon®-glass homogenizer. The homogenate is diluted to a concentration of 1 g of forebrain tissue per 100 mL Tris buffer and centrifuged at 39,000×G for 10 min. The pellet is resuspended in the same volume of Tris buffer with several brief pulses from a Polytron homogenizer. This particulate preparation is used for the δ-opioid binding assays. Following incubation with the δ-selective peptide ligand [^3H]DPDPE at 25° C., the tube contents are filtered through Whatman GF/B filter sheets on a Brandel cell harvester. The tubes and filters are rinsed three times with 4 mL of 10 mM HEPES (pH 7.4), and the radioactivity associated with the filter circles determined using Formula 989 scintillation fluid (New England Nuclear, Boston, Mass.) in a scintillation counter.
The data are used to calculate either the % inhibition compared to control binding (when only a single concentration of test compound is evaluated) or a Ki value (when a range of concentrations are tested).
% Inhibition was calculated as: […]
as §1

Series [3] concerns acetylcholine bromide-induced abdominal constriction response. Briefly: Mouse acetylcholine bromide-induced abdominal constriction assay (MAIT). Particulars: 150 μmole/Kg p.o., acetylcholine bromide 5.5 mg/kg i.p. 30 min later. It is filed as in vivo. The protocol:
The mouse acetylcholine-induced abdominal constriction assay, as described by Collier et al. in Brit. […] The test drugs or appropriate vehicles were administered orally (p.o.) and 30 min later the animal received an intraperitoneal (i.p.) injection of 5.5 mg/kg acetylcholine bromide (Matheson, Coleman and Bell, East Rutherford, N.J.). The mice were then placed in groups of three into glass bell jars and observed for a ten min observation period for the occurrence of an abdominal constriction response (defined as a wave of constriction and elongation passing caudally along the abdominal wall, accompanied by a twisting of the trunk and followed by extension of the hind limbs). For compounds of the present invention, the percent inhibition of this response to a nociceptive stimulus (equated to °/analgesia) was calculated as follows:
[formula] • CAR: Control Animal Responses • DTAR: Drug-Treated Animal Responses

The mark [4] stands for this setting: rat forebrain membranes, [3H]DAMGO, 25° C., read-out: μ-Opioid Receptor Binding Ki.
Where [5] appears, read: rat forebrain membranes, [3H]DPDPE, 25° C., read-out: δ-Opioid Receptor Binding Ki.
Setting [6] is: rat forebrain membranes, [3H]DPDPE.

T1 sequence (P33535 whole entry): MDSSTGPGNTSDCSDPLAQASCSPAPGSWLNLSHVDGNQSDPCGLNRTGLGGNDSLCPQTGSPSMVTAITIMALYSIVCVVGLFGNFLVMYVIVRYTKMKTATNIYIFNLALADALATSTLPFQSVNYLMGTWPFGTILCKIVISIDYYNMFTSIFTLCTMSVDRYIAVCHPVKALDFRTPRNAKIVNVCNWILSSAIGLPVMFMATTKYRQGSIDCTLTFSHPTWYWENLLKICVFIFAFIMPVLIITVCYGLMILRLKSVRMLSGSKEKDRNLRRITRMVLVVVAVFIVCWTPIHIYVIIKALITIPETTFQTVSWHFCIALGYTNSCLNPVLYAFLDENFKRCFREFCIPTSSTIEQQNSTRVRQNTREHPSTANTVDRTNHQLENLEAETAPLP
T2 sequence (P33533 whole entry): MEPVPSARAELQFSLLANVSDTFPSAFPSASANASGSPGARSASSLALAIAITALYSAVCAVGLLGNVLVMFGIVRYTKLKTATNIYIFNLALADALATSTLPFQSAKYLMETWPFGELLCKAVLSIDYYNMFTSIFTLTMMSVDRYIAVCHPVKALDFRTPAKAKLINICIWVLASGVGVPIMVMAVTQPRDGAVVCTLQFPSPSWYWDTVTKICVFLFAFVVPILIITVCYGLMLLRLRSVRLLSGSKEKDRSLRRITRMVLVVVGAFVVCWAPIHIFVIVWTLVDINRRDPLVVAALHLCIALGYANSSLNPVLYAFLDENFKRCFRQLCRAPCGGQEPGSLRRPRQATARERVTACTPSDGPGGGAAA

As to `CCN(CC)C(=O)c1ccc(N(Cc2ccccc2)C2CN3CCC2CC3)cc1` (centres unmarked) (as salt: fumarate) (hydrate or solvate) [Compound 16, N,N-Diethyl-4-[phenylmethyl-(1-azabicyclo[2.2.2]octan-3-amino)]benzamide Fumarate Hydrate [1:1.5:1]], the melting point lay in the range of 107 to 110 °C.
Compound `CCN(CC)C(=O)c1ccc(N(Cc2ccccc2F)C2CN3CCC2CC3)cc1` (centres unmarked) (as salt: fumarate) (hydrate or solvate) [Compound 18] gave a melting point of 193 to 196 °C.
Same read-out and setting: the same measure for `CCN(CC)C(=O)c1ccc(N(Cc2cccc(Cl)c2)C2CN3CCC2CC3)cc1` (centres unmarked) (as salt: fumarate) [Compound 17]: 193 to 196 °C.
`CCN(CC)C(=O)c1ccc(N(c2ccccc2)[C@H]2C3CCN(CC3)[C@@H]2C)cc1` [Compound 8, N,N-Diethyl-4-[phenyl-(trans-2-methyl-1-azabicyclo[2.2.2]octan-3-amino)]benzamide Fumarate Hydrate [1:1:0.5]]: the Ki in series [1] (setting [4]) was 1340 nM; in series [2] (setting [5]), 26 nM.
Regarding `CCN(CC)C(=O)c1ccc(N(Cc2ccccc2)C2CN3CCC2CC3)cc1` (centres unmarked) [Compound 16, N,N-Diethyl-4-[phenylmethyl-(1-azabicyclo[2.2.2]octan-3-amino)]benzamide Fumarate Hydrate [1:1.5:1]], the Ki in series [1] was determined as 1920 nM; in series [2] it was 50 nM. In addition, the “MAIT % Inhibition” value in series [3] is given as 50%.
Take `CCN(CC)C(=O)c1ccc(N(Cc2cccc(Cl)c2)C2CN3CCC2CC3)cc1` (centres unmarked) [Compound 17]: the values for the Ki in series [1] and in series [2] were 914 nM and 21 nM, respectively. For the same compound, the “MAIT % Inhibition” value in series [3] stood at 16.7%.
On the same counts, the results for `CCN(CC)C(=O)c1ccc(N(Cc2ccccc2F)C2CN3CCC2CC3)cc1` (centres unmarked) [Compound 18] are 1160 nM, 39 nM and 28.6%.
In the same order, the values of `CCN(CC)C(=O)c1ccc(N(Cc2cccc(F)c2)C2CN3CCC2CC3)cc1` (centres unmarked) [Compound 19] are 1120 nM, 5.5 nM and 18.2%.
On the same counts, the results for `CCN(CC)C(=O)c1ccc(N(Cc2ccccc2)[C@H]2CN3CCC2CC3)cc1` [Compound 20, (−)-(R)-N,N-Diethyl-4-[phenylmethyl-(1-azabicyclo[2.2.2]octan-3-amino)]benzamide Fumarate Hydrate [1:1.5:1]] are 1240 nM, 11 nM and 57.1%.
For the compound `CCN(CC)C(=O)c1ccc(N(Cc2ccccc2)[C@@H]2CN3CCC2CC3)cc1` [Compound 21, (+)-(S)-N,N-Diethyl-4-[phenylmethyl-(1-azabicyclo[2.2.2]octan-3-amino)]benzamide Fumarate Hydrate [1:1.5:1]], the Ki in series [1] is 2550 nM; in series [2], 20 nM. The “MAIT % Inhibition” value in series [3] turned out to be 35.720%.
In the case of “N,N-Diethyl-4-[(3,5-dichlorophenyl)-(1-azabicyclo[2.2.2]octan-3-amino)]benzamide Hydrochloride [Compound 7, N,N-Diethyl-4-[(3,5-dichlorophenyl)-(1-azabicyclo[2.2.2]octan-3-amino)]benzamide Hydrochloride [1:1]]”, in series [2] (setting [6]), the “δ-Opioid Receptor Binding, Inhibition at 1 μM” value was under 50%.
Take “N,N-Diethyl-4-[(3-thiomethylphenyl)-(trans-2-methyl-1-azabicyclo[2.2.2]octan-3-amino)]benzamide Fumarate [Compound 10, N,N-Diethyl-4-[(3-thiomethylphenyl)-(trans-2-methyl-1-azabicyclo[2.2.2]octan-3-amino)]benzamide Fumarate [1:1.5]]”: the “MAIT % Inhibition” value in series [3] was determined as 25%.
Turning to “N,N-Diethyl-4-[(3-trifluoromethylphenyl)-(1-azabicyclo[2.2.2]octan-3-amino)]benzamide Hydrochloride [Compound 4, N,N-Diethyl-4-[(3-trifluoromethylphenyl)-(1-azabicyclo[2.2.2]octan-3-amino)]benzamide Hydrochloride [1:1]]”, the “δ-Opioid Receptor Binding, Inhibition at 1 μM” value in series [2] (setting [6]) is under 50%.
“N,N-Diethyl-4-[phenyl-(1-azabicyclo[2.2.2]octan-3-amino)]-3-chlorobenzamide Fumarate [Compound 13, N,N-Diethyl-4-[phenyl-(1-azabicyclo[2.2.2]octan-3-amino)]-3-chlorobenzamide Fumarate [1:1]]”: the Ki in series [2] (setting [5]) amounted to 880 nM.
In the case of “N,N-Diethyl-4-[phenyl-(1-azabicyclo[2.2.2]octan-3-amino)]-3-fluorobenzamide Fumarate [Compound 11, N,N-Diethyl-4-[phenyl-(1-azabicyclo[2.2.2]octan-3-amino)]-3-fluorobenzamide Fumarate [1:1]]”, the inhibitory constant (Ki) in series [1] (setting [4]) was determined as 8330 nM; in series [2] (setting [5]), 255 nM.
On the same counts, the results for “N,N-Diethyl-4-[phenyl-(1-azabicyclo[2.2.2]octan-3-amino)]-3-methylbenzamide Fumarate [Compound 12, N,N-Diethyl-4-[phenyl-(1-azabicyclo[2.2.2]octan-3-amino)]-3-methylbenzamide Fumarate [1:1]]” are 10000 nM and 608 nM.
Take “N,N-Diethyl-4-[phenyl-(1-azabicyclo[2.2.2]octan-3-amino)]benzamide Fumarate [Compound 1, N,N-Diethyl-4-[phenyl-(1-azabicyclo[2.2.2]octan-3-amino)]benzamide Fumarate [1:1]]”: in series [3], the “MAIT % Inhibition” value stood at 55.6%.
Still for that read-out and setting: the same measure for “N,N-Diethyl-4-[phenyl-(cis-2-methyl-1-azabicyclo[2.2.2]octan-3-amino)]benzamide [Compound 9]”: 20%.
For “N-Morpholino-4-[phenyl-(1-azabicyclo[2.2.2]octan-3-amino)]benzamide Fumarate [Compound 15, N-Morpholino-4-[phenyl-(1-azabicyclo[2.2.2]octan-3-amino)]benzamide Fumarate [1:1]]”, the “δ-Opioid Receptor Binding, Inhibition at 1 μM” value in series [2] (setting [6]) is listed as under 50%.
Still for that read-out and setting: the same measure for “N-pyrrolidinyl-4-[(4-methoxyphenyl)-(1-azabicyclo[2.2.2]octan-3-amino)]benzamide Fumarate [Compound 14, N-pyrrolidinyl-4-[(4-methoxyphenyl)-(1-azabicyclo[2.2.2]octan-3-amino)]benzamide Fumarate [1:1]]”: under 50%.
